The source made the active and inactive calls. The rule behind the calls is not given here.
Columns and labels:
[1] = biological target: T1, Histone acetyltransferase GCN5 (Saccharomyces cerevisiae S288c, UniProt Q03330); assay: Inhibition of yeast GCN5 (99 to 262 residues) expressed in Escherichia coli BL21 (DE3) preincubated for 15 mins followed by biotin tagged H3 peptide ( 1 to 23 residues) and [3H]-Ac-CoA addition and measured after 60 mins by radioactive acetylation assay
[2] = biological target: Histone acetyltransferase GCN5 (Saccharomyces cerevisiae S288c) (UniProt Q03330); assay: Inhibition of yeast GCN5 (99 to 262 residues) expressed in Escherichia coli BL21 (DE3) at 33 uM preincubated for 15 mins followed by biotin tagged H3 peptide ( 1 to 23 residues) and [3H]-Ac-CoA addition and measured after 60 mins by radioactive acetylation assay
[3] = biological target: Histone acetyltransferase GCN5 (Saccharomyces cerevisiae S288c) (UniProt Q03330); assay: Inhibition of yeast GCN5 (99 to 262 residues) expressed in Escherichia coli BL21 (DE3) at 100 uM using biotin tagged H3 peptide ( 1 to 23 residues) as substrate preincubated for 30 mins followed by AC-CoA and substrate addition and measured after 30 mins by AlphaScreen assay
[4] = biological target: Histone acetyltransferase KAT2A (Homo sapiens) (UniProt Q92830); assay: Inhibition of GCN5 in human MV4-11 cells assessed as reduction of acetylated H3K14 level up to 100 uM after 24 hrs by Western blot analysis; assay type: cell-based
MV4-11 [5] = assay: Cell cycle arrest in human MV4-11 cells accumulation at S phase at 25 uM after 24 hrs bby propidium iodide staining-based flow cytometric analysis (reference value: 42.77%); assay type: functional
[6] = Antiproliferative activity against human […] cells after 3 days by celltiter-glo luminescent assay; assay type: cell-based; details: 72 h
[7] = biological target: Histone-lysine N-methyltransferase EZH2 (Homo sapiens) (UniProt Q15910); assay: Inhibition of EZH2 (unknown origin) at 33 uM relative to control
MV4-11 [8] = assay: Cell cycle arrest in human MV4-11 cells accumulation at S phase at 12.5 uM after 24 hrs bby propidium iodide staining-based flow cytometric analysis (reference value: 42.77%); assay type: functional
MV4-11 [9] = assay: Induction of apoptosis in human MV4-11 cells assessed as late apototic cells at 40 uM after 72 hrs by Annexin-V FITC/propidium iodide staining based flow cytometric analysis (reference value: 3.41%); assay type: functional
[10] = biological target: Histone acetyltransferase p300 (Homo sapiens) (UniProt Q09472); assay: Inhibition of p300 (unknown origin) at 33 uM relative to control
MV4-11 [11] = assay: Induction of apoptosis in human MV4-11 cells assessed as viable cells at 20 uM after 72 hrs by Annexin-V FITC/propidium iodide staining based flow cytometric analysis (reference value: 95.2%); assay type: functional; details: MV4-11, 72 h, read-out: Activity
MV4-11 [12] = assay: Induction of apoptosis in human MV4-11 cells assessed as necrotic cells at 20 uM after 72 hrs by Annexin-V FITC/propidium iodide staining based flow cytometric analysis (reference value: 0.66%); assay type: functional
MV4-11 [13] = assay: Cell cycle arrest in human MV4-11 cells accumulation at G2 phase at 12.5 uM after 24 hrs bby propidium iodide staining-based flow cytometric analysis (reference value: 4.68%); assay type: functional
HUVEC = assay: Antiproliferative activity against HUVEC after 3 days by celltiter-glo luminescent assay; assay type: cell-based; details: human, 72 h
MV4-11 [14] = assay: Cell cycle arrest in human MV4-11 cells accumulation at G1 phase at 12.5 uM after 24 hrs bby propidium iodide staining-based flow cytometric analysis (reference value: 52.56%); assay type: functional
MV4-11 [15] = assay: Induction of apoptosis in human MV4-11 cells assessed as necrotic cells at 40 uM after 72 hrs by Annexin-V FITC/propidium iodide staining based flow cytometric analysis (reference value: 0.66%); assay type: functional
[16] = biological target: T1, Histone acetyltransferase GCN5; assay: Binding affinity to yeast GCN5 (99 to 262 residues) expressed in Escherichia coli BL21 (DE3) by SPR analysis
MV4-11 [17] = assay: Cell cycle arrest in human MV4-11 cells accumulation at G2 phase at 25 uM after 24 hrs bby propidium iodide staining-based flow cytometric analysis (reference value: 4.68%); assay type: functional
MV4-11 [18] = assay: Induction of apoptosis in human MV4-11 cells after 72 hrs by Annexin-V FITC/propidium iodide staining based flow cytometric analysis; assay type: functional, cell-based
[19] = biological target: T2, Histone-lysine N-methyltransferase EHMT2 (Homo sapiens) (UniProt Q96KQ7); assay: Inhibition of G9a (unknown origin) at 33 uM relative to control
T2 sequence (whole entry): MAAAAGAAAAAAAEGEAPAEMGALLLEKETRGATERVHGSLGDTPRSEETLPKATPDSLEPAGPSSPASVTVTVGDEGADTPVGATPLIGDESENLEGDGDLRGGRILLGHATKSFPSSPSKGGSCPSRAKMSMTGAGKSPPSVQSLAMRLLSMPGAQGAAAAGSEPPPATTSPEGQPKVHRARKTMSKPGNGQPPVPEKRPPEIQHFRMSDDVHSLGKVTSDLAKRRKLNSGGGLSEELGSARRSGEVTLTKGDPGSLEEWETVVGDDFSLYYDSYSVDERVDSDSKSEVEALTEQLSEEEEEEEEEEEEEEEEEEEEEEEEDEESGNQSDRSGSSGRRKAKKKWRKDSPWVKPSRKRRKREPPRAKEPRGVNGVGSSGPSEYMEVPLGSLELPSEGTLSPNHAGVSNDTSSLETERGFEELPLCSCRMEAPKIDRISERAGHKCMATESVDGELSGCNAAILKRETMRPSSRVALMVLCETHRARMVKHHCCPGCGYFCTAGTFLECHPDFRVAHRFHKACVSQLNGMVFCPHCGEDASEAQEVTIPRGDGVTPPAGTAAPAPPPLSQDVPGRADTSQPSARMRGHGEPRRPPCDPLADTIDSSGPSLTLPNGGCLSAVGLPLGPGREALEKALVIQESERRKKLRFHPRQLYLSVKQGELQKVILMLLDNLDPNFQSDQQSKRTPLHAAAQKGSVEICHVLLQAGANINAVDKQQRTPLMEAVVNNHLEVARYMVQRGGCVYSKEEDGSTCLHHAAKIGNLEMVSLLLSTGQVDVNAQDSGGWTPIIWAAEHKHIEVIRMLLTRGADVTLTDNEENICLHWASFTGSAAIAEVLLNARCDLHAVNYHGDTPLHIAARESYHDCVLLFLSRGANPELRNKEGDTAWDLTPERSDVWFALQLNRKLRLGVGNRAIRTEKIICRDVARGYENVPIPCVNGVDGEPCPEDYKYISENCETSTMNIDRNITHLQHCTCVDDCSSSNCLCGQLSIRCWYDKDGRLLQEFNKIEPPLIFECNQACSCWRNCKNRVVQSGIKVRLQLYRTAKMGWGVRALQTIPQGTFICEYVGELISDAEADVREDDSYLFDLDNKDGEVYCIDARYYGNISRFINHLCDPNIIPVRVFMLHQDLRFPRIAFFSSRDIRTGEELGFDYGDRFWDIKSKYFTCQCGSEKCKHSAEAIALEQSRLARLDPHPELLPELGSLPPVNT

MV4-11 [20] = assay: Induction of apoptosis in human MV4-11 cells assessed as early apototic cells at 40 uM after 72 hrs by Annexin-V FITC/propidium iodide staining based flow cytometric analysis (reference value: 0.75%); assay type: functional
MV4-11 [21] = assay: Induction of apoptosis in human MV4-11 cells assessed as viable cells at 40 uM after 72 hrs by Annexin-V FITC/propidium iodide staining based flow cytometric analysis (reference value: 95.2%); assay type: functional; details: MV4-11, 72 h, read-out: Activity
MV4-11 [22] = assay: Induction of apoptosis in human MV4-11 cells assessed as early apototic cells at 20 uM after 72 hrs by Annexin-V FITC/propidium iodide staining based flow cytometric analysis (reference value: 0.75%); assay type: functional
MV4-11 [23] = assay: Induction of apoptosis in human MV4-11 cells assessed as late apototic cells at 20 uM after 72 hrs by Annexin-V FITC/propidium iodide staining based flow cytometric analysis (reference value: 3.41%); assay type: functional
MV4-11 [24] = assay: Cell cycle arrest in human MV4-11 cells accumulation at G0/G1 phase after 24 hrs bby propidium iodide staining-based flow cytometric analysis; assay type: functional
MV4-11 [25] = assay: Antiproliferative activity against human MV4-11 cells after 3 days by celltiter-glo luminescent assay; assay type: functional, cell-based; details: for IC50: MV4-11, 72 h
MV4-11 [26] = assay: Cell cycle arrest in human MV4-11 cells accumulation at G1 phase at 25 uM after 24 hrs bby propidium iodide staining-based flow cytometric analysis (reference value: 52.56%); assay type: functional
[27] = biological target: Histone acetyltransferase GCN5 (Saccharomyces cerevisiae S288c) (UniProt Q03330); assay: Binding affinity to yeast GCN5 (99 to 262 residues) expressed in Escherichia coli BL21 (DE3) at 200 uM by CPMG NMR spectroscopy
[28] = biological target: Histone acetyltransferase GCN5 (Saccharomyces cerevisiae S288c) (UniProt Q03330); assay: Binding affinity to yeast GCN5 (99 to 262 residues) expressed in Escherichia coli BL21 (DE3) at 200 uM by STD NMR spectroscopy

Histone acetyltransferase GCN5 (Saccharomyces cerevisiae S288c), sequence (Q03330 whole entry, the tested form may be a part): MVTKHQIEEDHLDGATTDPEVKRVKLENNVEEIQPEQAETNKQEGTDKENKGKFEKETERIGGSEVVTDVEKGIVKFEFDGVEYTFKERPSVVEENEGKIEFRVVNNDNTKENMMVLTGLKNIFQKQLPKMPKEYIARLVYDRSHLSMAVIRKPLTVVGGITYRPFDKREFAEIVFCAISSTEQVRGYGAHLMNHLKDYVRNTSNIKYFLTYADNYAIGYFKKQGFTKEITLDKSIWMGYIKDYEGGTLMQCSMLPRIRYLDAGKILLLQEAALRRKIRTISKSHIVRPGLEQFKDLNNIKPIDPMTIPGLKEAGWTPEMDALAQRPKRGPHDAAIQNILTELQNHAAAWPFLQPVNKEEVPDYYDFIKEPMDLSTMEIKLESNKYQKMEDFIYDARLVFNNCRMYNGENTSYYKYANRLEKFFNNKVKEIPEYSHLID
T1 sequence (Q03330 whole entry, the tested form may be a part): as above
Histone acetyltransferase KAT2A (Homo sapiens), sequence (Q92830 2-837 limits assumed): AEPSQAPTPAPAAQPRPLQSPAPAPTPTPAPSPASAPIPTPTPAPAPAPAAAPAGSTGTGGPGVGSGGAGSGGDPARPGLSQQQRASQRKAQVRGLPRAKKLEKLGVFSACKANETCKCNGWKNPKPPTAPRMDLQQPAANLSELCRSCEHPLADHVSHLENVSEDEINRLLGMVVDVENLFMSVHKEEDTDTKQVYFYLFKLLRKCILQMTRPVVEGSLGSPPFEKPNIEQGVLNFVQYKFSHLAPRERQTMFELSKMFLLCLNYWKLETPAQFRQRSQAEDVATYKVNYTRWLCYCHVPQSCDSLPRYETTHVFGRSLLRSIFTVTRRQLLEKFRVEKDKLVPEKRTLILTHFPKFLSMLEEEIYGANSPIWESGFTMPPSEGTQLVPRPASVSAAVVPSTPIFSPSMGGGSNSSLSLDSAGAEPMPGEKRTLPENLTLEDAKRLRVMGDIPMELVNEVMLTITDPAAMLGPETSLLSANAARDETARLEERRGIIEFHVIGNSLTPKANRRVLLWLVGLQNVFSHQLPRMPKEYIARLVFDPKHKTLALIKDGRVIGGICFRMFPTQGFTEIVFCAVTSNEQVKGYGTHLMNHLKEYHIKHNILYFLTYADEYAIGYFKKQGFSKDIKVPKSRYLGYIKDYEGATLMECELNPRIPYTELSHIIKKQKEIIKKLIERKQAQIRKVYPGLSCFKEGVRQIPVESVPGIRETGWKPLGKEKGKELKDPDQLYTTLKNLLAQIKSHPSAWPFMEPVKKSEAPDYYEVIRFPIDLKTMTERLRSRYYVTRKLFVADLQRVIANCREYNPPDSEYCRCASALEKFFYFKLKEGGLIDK
Histone-lysine N-methyltransferase EZH2 (Homo sapiens), sequence (Q15910 whole entry, looked up): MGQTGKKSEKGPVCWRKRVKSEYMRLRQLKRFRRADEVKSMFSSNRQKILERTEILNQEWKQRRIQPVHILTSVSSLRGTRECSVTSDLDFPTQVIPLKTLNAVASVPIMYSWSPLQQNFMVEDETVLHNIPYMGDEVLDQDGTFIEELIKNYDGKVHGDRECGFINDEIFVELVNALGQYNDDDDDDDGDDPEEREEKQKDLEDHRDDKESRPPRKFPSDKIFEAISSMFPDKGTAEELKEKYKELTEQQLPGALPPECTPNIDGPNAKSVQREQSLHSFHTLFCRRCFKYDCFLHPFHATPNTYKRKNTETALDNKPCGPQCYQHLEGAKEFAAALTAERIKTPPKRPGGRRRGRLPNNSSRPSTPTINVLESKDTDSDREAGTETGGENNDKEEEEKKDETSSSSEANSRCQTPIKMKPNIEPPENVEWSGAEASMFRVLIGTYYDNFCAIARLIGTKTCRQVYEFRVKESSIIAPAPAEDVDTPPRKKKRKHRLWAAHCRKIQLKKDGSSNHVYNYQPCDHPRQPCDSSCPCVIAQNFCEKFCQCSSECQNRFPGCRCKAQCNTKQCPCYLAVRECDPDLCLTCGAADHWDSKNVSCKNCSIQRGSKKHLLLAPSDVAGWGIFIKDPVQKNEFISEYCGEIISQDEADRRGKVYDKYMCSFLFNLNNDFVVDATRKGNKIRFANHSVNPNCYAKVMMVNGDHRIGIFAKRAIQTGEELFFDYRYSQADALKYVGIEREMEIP
Histone acetyltransferase p300 (Homo sapiens), sequence (Q09472 whole entry): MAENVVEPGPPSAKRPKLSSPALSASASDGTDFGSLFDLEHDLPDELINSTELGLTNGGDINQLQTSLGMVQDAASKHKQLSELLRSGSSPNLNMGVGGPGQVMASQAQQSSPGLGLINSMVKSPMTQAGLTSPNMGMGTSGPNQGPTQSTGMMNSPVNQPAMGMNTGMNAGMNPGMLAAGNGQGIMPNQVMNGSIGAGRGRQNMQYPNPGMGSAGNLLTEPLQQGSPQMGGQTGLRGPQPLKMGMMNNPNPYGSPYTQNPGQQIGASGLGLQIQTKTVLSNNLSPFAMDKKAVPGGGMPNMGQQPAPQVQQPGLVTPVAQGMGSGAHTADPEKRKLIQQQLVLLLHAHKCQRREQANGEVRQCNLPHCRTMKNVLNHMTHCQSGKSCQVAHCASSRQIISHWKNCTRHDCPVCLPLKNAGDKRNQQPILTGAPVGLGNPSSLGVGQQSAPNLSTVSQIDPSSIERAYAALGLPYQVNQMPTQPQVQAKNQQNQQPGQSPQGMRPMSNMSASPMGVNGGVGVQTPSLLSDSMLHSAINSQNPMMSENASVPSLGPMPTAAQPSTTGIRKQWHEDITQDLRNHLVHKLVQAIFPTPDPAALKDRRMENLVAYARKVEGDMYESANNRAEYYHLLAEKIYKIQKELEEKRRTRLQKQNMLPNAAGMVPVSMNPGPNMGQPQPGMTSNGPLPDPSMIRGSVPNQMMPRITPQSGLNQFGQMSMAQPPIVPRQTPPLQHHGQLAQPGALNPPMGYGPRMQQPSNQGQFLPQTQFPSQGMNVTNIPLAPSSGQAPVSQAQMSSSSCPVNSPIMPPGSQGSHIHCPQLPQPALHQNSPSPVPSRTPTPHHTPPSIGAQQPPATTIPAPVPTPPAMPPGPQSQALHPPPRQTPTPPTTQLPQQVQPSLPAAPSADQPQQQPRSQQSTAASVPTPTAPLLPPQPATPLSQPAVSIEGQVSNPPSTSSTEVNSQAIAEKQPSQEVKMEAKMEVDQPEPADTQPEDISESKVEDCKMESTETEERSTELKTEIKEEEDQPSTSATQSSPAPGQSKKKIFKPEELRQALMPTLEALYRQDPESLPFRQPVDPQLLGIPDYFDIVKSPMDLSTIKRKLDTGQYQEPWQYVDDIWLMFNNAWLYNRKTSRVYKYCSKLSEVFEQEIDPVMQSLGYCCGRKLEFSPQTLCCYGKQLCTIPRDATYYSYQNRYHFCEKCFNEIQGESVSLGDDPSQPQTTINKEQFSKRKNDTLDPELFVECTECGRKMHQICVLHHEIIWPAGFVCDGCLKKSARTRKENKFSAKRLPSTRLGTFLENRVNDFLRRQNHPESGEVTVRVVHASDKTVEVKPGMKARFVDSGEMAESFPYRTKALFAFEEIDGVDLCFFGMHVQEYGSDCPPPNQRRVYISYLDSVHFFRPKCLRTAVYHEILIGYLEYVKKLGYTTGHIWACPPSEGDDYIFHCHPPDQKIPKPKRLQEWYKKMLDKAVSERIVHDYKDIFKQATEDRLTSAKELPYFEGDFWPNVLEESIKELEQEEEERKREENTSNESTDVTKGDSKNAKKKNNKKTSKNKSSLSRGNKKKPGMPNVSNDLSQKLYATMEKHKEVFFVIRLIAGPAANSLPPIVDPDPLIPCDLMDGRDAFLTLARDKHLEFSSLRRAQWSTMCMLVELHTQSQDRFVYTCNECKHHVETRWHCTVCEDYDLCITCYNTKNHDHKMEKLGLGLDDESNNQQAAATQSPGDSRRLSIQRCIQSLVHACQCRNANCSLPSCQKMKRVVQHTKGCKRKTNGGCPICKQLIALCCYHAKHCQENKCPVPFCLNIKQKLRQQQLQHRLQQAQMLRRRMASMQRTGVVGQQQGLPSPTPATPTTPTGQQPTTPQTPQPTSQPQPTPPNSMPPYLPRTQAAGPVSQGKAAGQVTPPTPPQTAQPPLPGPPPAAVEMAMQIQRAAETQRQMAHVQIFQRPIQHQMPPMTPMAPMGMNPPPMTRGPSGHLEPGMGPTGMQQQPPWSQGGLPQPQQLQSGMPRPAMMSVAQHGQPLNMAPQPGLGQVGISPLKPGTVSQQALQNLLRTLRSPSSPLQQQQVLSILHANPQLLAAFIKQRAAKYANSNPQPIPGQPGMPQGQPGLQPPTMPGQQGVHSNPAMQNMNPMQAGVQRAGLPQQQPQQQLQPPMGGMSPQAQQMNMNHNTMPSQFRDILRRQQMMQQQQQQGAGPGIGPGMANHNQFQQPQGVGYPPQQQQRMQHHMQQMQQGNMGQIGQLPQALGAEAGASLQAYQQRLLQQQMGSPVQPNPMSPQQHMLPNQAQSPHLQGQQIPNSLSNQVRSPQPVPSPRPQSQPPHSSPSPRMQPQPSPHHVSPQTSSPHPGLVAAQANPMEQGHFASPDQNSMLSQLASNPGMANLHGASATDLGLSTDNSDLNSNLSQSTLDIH

## COC(=O)C1=C(C)NC2=C(C(=O)CC(C)(C)C2)C1c1ccc(OCc2ccc(C(=O)O)cc2)cc1 (stereo not drawn)
[1]
  IC50: 31 µM

## O=C(O)c1ccc(COc2ccccc2Br)cc1
[1]
  IC50: 81 µM

## CC1(C)CC(=O)C2=C(C1)NC1=C(C(=O)CC(C)(C)C1)C2c1ccc(OCc2ccccc2)c(Br)c1
[2]
  inhibition: 15%

## N#Cc1c(-c2ccc(F)cc2)cc(-c2cccs2)nc1SCC(=O)NCC(=O)O
[1]
  IC50: 20 µM
[3]
  inhibition: > 70%

## CCC(=O)Nc1cccc(NC(=O)C(C)Oc2cccc(C)c2)c1 (stereo not drawn)
[3]
  inhibition: > 70%

## CC1(C)CC(=O)C2=C(C1)NC1=C(C(=O)CC(C)(C)C1)C2c1cc(Br)c(OCc2ccc(C(=O)O)cc2)c(Br)c1
[4]
  inhibition: Active
MV4-11 [5]
  Activity: 13.99%
[6]
  Activity: Non-Toxic
[7]
  inhibition: 7%
MV4-11 [8]
  Activity: 26.29%
MV4-11 [9]
  Activity: 54.6%
[10]
  inhibition: 21%
MV4-11 [11]
  viability at 20 µM: 82.5%
[1]
  IC50: 6.8 µM
MV4-11 [12]
  Activity: 0.41%
MV4-11 [13]
  Activity: 1.35%
HUVEC
  Activity: Non-Toxic
MV4-11 [14]
  Activity: 72.36%
MV4-11 [15]
  Activity: 2.32%
[16]
  Kd: 4.2 µM
MV4-11 [17]
  Activity: 1.3%
MV4-11 [18]
  Activity: Dose-dependent effect
[19]
  inhibition: -8%
MV4-11 [20]
  Activity: 0.7%
MV4-11 [21]
  viability at 40 µM: 42.4%
MV4-11 [22]
  Activity: 0.81%
MV4-11 [23]
  Activity: 16.2%
MV4-11 [24]
  Activity: Dose-dependent effect
MV4-11 [25]
  Activity: Dose-dependent effect
  IC50: 24.7 µM
MV4-11 [26]
  Activity: 84.7%

## COC(=O)c1cc(NC(=O)Cc2cccs2)cc(C(=O)OC)c1
[1]
  IC50: 2.9 µM
[3]
  inhibition: > 70%

## O=C1CCCC2=C1C(c1ccc(OCc3cccc(F)c3)c(Br)c1)C1=C(CCCC1=O)N2
[4]
  inhibition: inactive
MV4-11 [25]
  IC50: > 100 µM
[2]
  inhibition: 26%

## COc1cc(C2C3=C(CCCC3=O)NC3=C2C(=O)CCC3)ccc1OCc1ccc(C(=O)O)cc1
[2]
  inhibition: 24%

## O=C1CCCC2=C1C(c1ccc(OCc3ccc(C(=O)O)cc3)cc1)c1ccc3ccccc3c1N2 (stereo not drawn)
[1]
  IC50: 34 µM

## CN(C)CCOc1ccc(NC2Cc3ccccc3CSc3ccccc32)cc1 (stereo not drawn)
[3]
  inhibition: > 70%

## CC1=C(C#N)C(c2ccc(OCc3ccc(C(=O)O)cc3)cc2)C2=C(CCCC2=O)N1 (stereo not drawn)
[2]
  inhibition: 34%

## O=c1cc(O)c2sc3nc(-c4cccs4)cc(C(F)(F)F)c3c2[nH]1
[1]
  IC50: 19 µM
[3]
  inhibition: > 70%

## O=C(O)c1ccc(-c2nc3c4ccccc4c4ccccc4c3[nH]2)cc1
[1]
  IC50: 8.6 µM
[3]
  inhibition: > 70%

## CC1(C)CC(=O)C2=C(C1)NC1=C(C(=O)CC(C)(C)C1)C2c1ccc(OCc2ccc(C(=O)O)cc2)c(Br)c1
[1]
  IC50: 16 µM

## O=C1CCCC2=C1C(c1cc(Cl)c(OCc3ccc(C(=O)O)cc3)c(Cl)c1)C1=C(CCCC1=O)N2
[1]
  IC50: 34.7 µM
[16]
  Kd: 26.2 µM
[27]
  Activity: Active
[28]
  Activity: Active
[3]
  inhibition: > 70%

## COc1cc(CNC2CCCC2)ccc1OCC(=O)NC(C)(C)C
[3]
  inhibition: > 70%

## CC1(C)CC(=O)C2=C(C1)NC1=C(C(=O)CC(C)(C)C1)C2c1ccc(O)c(Br)c1
[2]
  inhibition: 18%

— ChEMBL document CHEMBL4152219, “Discovery of 1,8-acridinedione derivatives as novel GCN5 inhibitors via high throughput screening” (Eur J Med Chem, 2018)
